{"source": "patent US5637309A", "about": "“Physiologically active substance-prolonged releasing-type pharmaceutical preparation” (Shiseido Company, Ltd., priority 1993, dated 1997)", "key": {"[1]": {"test_system": "basilar artery", "assay": "Cerebral vasospasm inhibition test on maxadilan (SEQ ID NO: 3) by cisterna puncture, angiography of the basilar artery", "type": "in vivo, Japanese white rabbit", "conditions": "aqueous solution, 7 μg per kg", "from_the_text": "Cerebral vasospasm inhibition test on maxadilan (SEQ ID NO: 3)\nA Japanese white rabbit (male, weighing 2-3 kg) was subjected to general anesthesia by injection of sodium pentobarbital through the auricular vein. After the rabbit was retained so as not to move, the surroundings of the punctured vein were disinfected with sterilized ethanol, a self-retaining needle was punctured into the vein, and immediately thereafter, a silicone-made extension tube equipped, at one end, with a three way cock connected at the two ways with 10-ml syringes each containing physiological saline and connected at the residual way with a 10-ml syringe containing sodium pentobarbital was connected to the self-retaining needle (when the blood vessel is thin, the blood vessel is stimulated by fingers to dilate it). […]\nA spot for angiography was determined by transillumination, the head was fast fixed, back flow of the blood was confirmed, and 0.8 ml of a contrast medium was injected under a certain pressure (2.3 kg/cm^2). […]\nGroups of rabbits, one group consisting of 5 animals, were treated as mentioned above, and among them, rabbits were selected wherein when the basilar artery was divided, starting from the junction from the vertebral artery, into three equal parts, and the diameter at the middle point was measured, spasm occurred at a level of 18% or more. […]"}, "[2]": {"conditions": "relative to SEQ ID NO: 2; cited from earlier work"}}}
{"substance": "SEQ ID NO: 3: peptide wherein an amino acid sequence residue GSIL- is bonded to the N-terminus of SEQ ID NO: 1 maxadilan", "values": [{"measurement": "Inhibition of spasm compared to the sterile water administration group", "setting": "[1]; 3 days after blood injection", "value": "spasm was significantly inhibited"}, {"measurement": "Duration of significant inhibition of spasm (from immediately after the administration)", "setting": "[1]; vs sterile water group", "value": "about 4 hours"}, {"measurement": "Vasodilative action (particularly, erythema activities), times higher than that of SEQ ID NO: 2", "setting": "[2]", "value": "about 10 times"}]}
